Experiments:
IMR90 cells = test: Senolytic survival assay, doxorubicin-induced senescence; type: cell-based, human; details: doxorubicin or DMSO; compounds added 7 days after induction; read 7 days later; FIGS. 3A-B
Protocol: IMR90 cells were used to generate inducible ER:RAS (hereinafter iRAS) cells to model Oncogene induced senescence (OIS), through retroviral infection of pLNC-ER:RAS-neo into IMR90 cells followed by selection with Neomycin. IMR90 cells containing the pLNC-ER:RAS plasmid backbone pLXSN were infected in parallel to assess leakiness in the pLNC-ER:RAS system. Treatment with 100 nM 4OHT (Sigma, in DMSO) was used to induce IMR90 ER:RAS cells to undergo oncogene induced senescence (OIS). […]
High-throughput microscopy survival assay—To assess senolytic effect of drugs, cells were cultured for 7 days, culture media was changed to DM0.5 media and drugs in DMSO were added (<5% v/v final concentration), drugs were replenished after 3 days if assay length was longer than 72 h. […] Image acquisition of DAPI stained cells was performed on an automated InCell Analyser 2000 (GE Healthcare®) and high-content analysis on the InCell Investigator 2.7.3 software used to quantify number of DAPI positive cells per well. […] Survival was measured as cell counts relative to DMSO treated quiescent or senescent cells.
IMR90 cells were treated with doxorubicin (to induce senescence), or DMSO (as a control). […] Senolytic activity of inhibitors was determined 7 days after adding the drugs with replenishment after 3 days, cells were fixed, imaged and cells numbers were quantified using high throughput microscopy. […]

[1] = Blood markers (Vetscan) in a separate cohort of old mice; type: in vivo, female C57/BL6 mice; details: ~19 mo females, before 4th round, Compound 2 10 mg/kg, Compound 3 25 mg/kg, versus vehicle
Protocol: Blood was collected prior to each round of injection for physiological assessments. Mice were allowed to rest 4 weeks prior to being culled and organs collected for freezing in OCT, paraffin embedding and snap-freezing for RNA extraction.
For analysis of immune cell composition in whole blood, tail-vein blood was collected 2 days after last treatment. Whole blood was diluted in saline to a volume of […] and ran on a Sysmex XE2100 automated cell counter. Blood glucose levels were determined by collecting whole-blood from tail vein into heparinised tubes (Abraxis), 120-140 μL of whole-blood to be loaded onto a comprehensive diagnostic profile reagent rotor (Abraxis) and run on a VetScan VS2 Chemistry Analyzer (Abraxis: 500-7123).
Further experiments were performed on a separate cohort of old mice. […] This regimen was repeated 4 more times and blood was collected for Vetscan measurements prior to the 4th round of treatment (FIG. 19). At that stage, ~19 mo females presented elevated levels of ALT, amylase and glucose in blood when compared with young mice (FIG. 20A).

senescent cells = test: Senolytic activity in old mice (senescent-associated β-galactosidase staining); type: in vivo, C57BL/6J female mice; details: ~26 month female mice, 10 mg/kg i.p., versus vehicle
Protocol: Lung and liver samples frozen in optimal cutting temperature (OCT) were cryosectioned (15 μM) and frozen sections fixed in ice-cold 0.5% Glutaraldehyde (w/v, PBS) for 15 min and washed 1 mM MgCl2/PBS (pH 6.0) for 5 min. β-galactosidase activity was stained for with X-gal staining solution (1 mg ml^−1 X-gal, ThermoFisher Scientific, 5 mM K3(Fe(CN)6), 5 mM K4(Fe(CN)6)) for 18 h at 37° C. Slides were dehydrated and coverslips mounted prior to being imaged using 20× brightfield objective on Zeiss AxioScan Z.1 slide scanner. ImageJ was used to quantify staining by measuring the β-gal stained area as a percentage of the total tissue area excluding luminal spaces.

For `Cc1nn(C)c(C)c1CCOc1c(-c2ccc3c(c2)c(CN(C)C)nn3C)ccc(F)c1F` [Compound 1, 1-(5-(3,4-difluoro-2-(2-(1,3,5-trimethyl-1H-pyrazol-4-yl)ethoxy)phenyl)-1-methyl-1H-indazol-3-yl)-N,N-dimethylmethanamine], the “Survival (cell counts relative to DMSO), senescent versus control cells” value (IMR90 cells) was “selectively kill senescent cells induced to senescence by doxorubicin”.
In the case of `Cc1c(NS(=O)(=O)c2c(Cl)cc(-c3ccnc(N4CCNCC4)c3)cc2Cl)c(CC(C)C)nn1C` [Compound 2], the ALT in blood ([1]; FIG. 20A) is reported as “lower level”, the Amylase in blood ([1]; FIG. 20B) is reported as “lower level” and the Glucose in blood ([1]; FIG. 20C) is reported as “lower level”. The “Senescent cells in livers (senescent-associated β-galactosidase staining)” value (senescent cells; FIG. 17B) was “lower levels of senescent cells” and the “Senescent cells in lungs (senescent-associated β-galactosidase staining)” value (senescent cells; FIG. 17C) was “lower levels of senescent cells”.

Reference: patent US12691100B2, “NMT inhibitor treatment of a senescence-associated disease or disorder of the liver” (Imperial College Innovations Limited, priority 2020, dated 2026)
